In brackets after ≈: the same amount, converted by molar mass. Where a name gives a salt, the structure may show the parent alone. Read-outs that look alike come from different tables or passages of the source.
What was measured:
[1] = system: E. coli ELZ4251 (MDR clinical isolate); assay: Antibacterial activity, MIC, MDR E. coli ELZ4251; format: cell-based, Escherichia coli; details: Escherichia coli, E. coli ELZ4251, MDR clinical isolate; read-out: MIC ELZ4251
[2] = system: super sensitive Gram-negative Escherichia coli (E. coli) BAS849; assay: Antibacterial activity, microbroth dilution MIC, E. coli BAS849; format: cell-based; details: Escherichia coli, read-out: MIC, BAS849
[3] = system: control Gram-negative E. coli 25922 strain; assay: Antibacterial activity, microbroth dilution MIC, E. coli 25922; format: cell-based, Escherichia coli; details: Escherichia coli; E. coli 25922, microbroth dilution; read-out: MIC, 25922
[4] = system: E. coli ELZ4000 (MDR clinical isolate); assay: Antibacterial activity, MIC, MDR E. coli ELZ4000; format: cell-based, Escherichia coli; details: Escherichia coli; E. coli ELZ4000, MDR clinical isolate; read-out: MIC ELZ4000
[5] = system: Klebsiella pneumoniae (K. pneumoniae) 35657; assay: Antibacterial activity, MIC, K. pneumoniae 35657; format: cell-based; details: Klebsiella pneumoniae
[6] = system: Gram-positive Staphylococcus aureus (S. aureus) 29213; assay: Antibacterial activity, microbroth dilution MIC, S. aureus 29213; format: cell-based; details: Staphylococcus aureus; S. aureus 29213, microbroth dilution; read-out: MIC, 29213
[7] = system: Moraxella catarrhalis (M. catarrhalis) 25238; assay: Antibacterial activity, MIC, M. catarrhalis 25238; format: cell-based; details: Moraxella catarrhalis, M. catarrhalis 25238; read-out: MIC 25238
[8] = system: Haemophilus influenzae (H. influenzae) 49247; assay: Antibacterial activity, MIC, H. influenzae 49247; format: cell-based; details: Haemophilus influenzae; H. influenzae 49247; read-out: MIC 49247
Summary of the method: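 A microbroth dilution method gave the minimum inhibitory concentration for each compound against H. influenzae 49247, a Gram-negative bacterium. MIC means the smallest concentration of drug at which no macroscopically visible bacterial growth appears under the conditions of the test.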

[9] = system: quinolone resistant E. coli LZ3111; assay: Antibacterial activity, MIC, quinolone resistant E. coli LZ3111; format: cell-based, Escherichia coli; details: Escherichia coli, read-out: MIC, LZ3111
Description: (§1) The antibacterial activity from a microbroth dilution method may be presented as the minimum inhibitory concentration (MIC in […]). The MIC value is the lowest concentration of a drug which prevents macroscopically visible bacterial growth under test conditions.
Mutations in these regions are known to confer a high level resistance to the quinolone class of antibiotics.

[10] = system: Pseudomonas aeruginosa (P. aeruginosa) 27853; assay: Antibacterial activity, MIC, P. aeruginosa 27853; format: cell-based; details: Pseudomonas aeruginosa, P. aeruginosa 27853; read-out: MIC 27853
Description: as §1
Antibacterial activity of test compounds against the Gram-negative bacterium Pseudomonas aeruginosa (P. aeruginosa) 27853 is shown in Table 5.

[11] = system: Neisseria meningitidis (N. meningitidis) 13090; assay: Antibacterial activity, MIC, N. meningitidis 13090; format: cell-based; details: Neisseria meningitidis; N. meningitidis 13090; read-out: MIC 13090
[12] = system: Acinetobacter baumannii (A. baumannii) BAA747; assay: Antibacterial activity, MIC, A. baumannii BAA747; format: cell-based; details: Acinetobacter baumannii; A. baumannii BAA747; read-out: MIC BAA747
[13] = E. coli BAS849, microbroth dilution

| SMILES | MIC [1] [µg/mL] | MIC [2, 13] [µg/mL] | MIC [3] [µg/mL] | MIC [4] [µg/mL] | MIC [5] [µg/mL] | MIC [6] [µg/mL] | MIC [7] [µg/mL] | MIC [8] [µg/mL] | MIC [9] [µg/mL] | MIC [10] [µg/mL] | MIC [11] [µg/mL] | MIC [12] [µg/mL] | MIC [2] [µg/mL] |
| --- | --- | --- | --- | --- | --- | --- | --- | --- | --- | --- | --- | --- | --- |
| CCc1cc(C(=O)O)c(=O)[nH]c1-c1ccc(-n2cccc2)cc1 [Cpd 101, 5-ethyl-2-oxo-6-[4-(1H-pyrrol-1-yl)phenyl]-1,2-dihydropyridine-3-carboxylic acid] | 12.5 to 150 (≈ 40.5 to 486 µM) | < 1 | 12.5 to 150 (≈ 40.5 to 486 µM) | 12.5 to 150 (≈ 40.5 to 486 µM) | 3.5 to 12.5 (≈ 11.4 to 40.5 µM) | 12.5 to 150 (≈ 40.5 to 486 µM) | < 1 | < 1 | 12.5 to 150 (≈ 40.5 to 486 µM) | 12.5 to 150 (≈ 40.5 to 486 µM) | < 1 |  |  |
| CCc1cc(C(=O)O)c(=O)[nH]c1-c1ccc(N2Cc3cccnc3C2)cc1 [Cpd 192, 6-[4-(5,7-dihydro-6H-pyrrolo[3,4-b]pyridin-6-yl)phenyl]-5-ethyl-2-oxo-1,2-dihydropyridine-3-carboxylic acid] |  | < 1 | 3.5 to 12.5 (≈ 9.68 to 34.6 µM) |  | 12.5 to 150 (≈ 34.6 to 415 µM) | 3.5 to 12.5 (≈ 9.68 to 34.6 µM) |  |  | 12.5 to 150 (≈ 34.6 to 415 µM) | 12.5 to 150 (≈ 34.6 to 415 µM) |  | 12.5 to 150 (≈ 34.6 to 415 µM) |  |
| CCc1cc(C(=O)O)c(=O)[nH]c1-c1ccc(N2CCC(C3(NCc4ccccc4)CC3)C2)cc1.O=C(O)C(F)(F)F (stereo not drawn) [Cpd 217, 6-(4-{3-[1-(benzylamino)cyclopropyl]pyrrolidin-1-yl}phenyl)-5-ethyl-2-oxo-1,2-dihydropyridine-3-carboxylic acid trifluoroacetate] |  |  | 3.5 to 12.5 |  | 3.5 to 12.5 | 3.5 to 12.5 |  |  |  | 12.5 to 150 |  | 12.5 to 150 | < 1 |
| CCc1cc(C(=O)O)c(=O)[nH]c1-c1ccc(N2CC3CCCCC3(C#N)C2)cc1 (stereo not drawn) [Cpd 219, 6-[4-(3a-cyanooctahydro-2H-isoindol-2-yl)phenyl]-5-ethyl-2-oxo-1,2-dihydropyridine-3-carboxylic acid] |  | < 1 | 12.5 to 150 (≈ 31.9 to 383 µM) |  | 12.5 to 150 (≈ 31.9 to 383 µM) | 12.5 to 150 (≈ 31.9 to 383 µM) |  |  | 12.5 to 150 (≈ 31.9 to 383 µM) | 12.5 to 150 (≈ 31.9 to 383 µM) |  | 12.5 to 150 (≈ 31.9 to 383 µM) |  |
| CCc1cc(C(=O)O)c(=O)[nH]c1-c1ccc(N2CC[C@@H](O)C2)cc1F [Cpd 225, 5-ethyl-6-{2-fluoro-4-[(3R)-3-hydroxypyrrolidin-1-yl]phenyl}-2-oxo-1,2-dihydropyridine-3-carboxylic acid] |  | < 1 | 3.5 to 12.5 (≈ 10.1 to 36.1 µM) |  | 1 to 3.5 (≈ 2.89 to 10.1 µM) | 12.5 to 150 (≈ 36.1 to 433 µM) |  |  | 12.5 to 150 (≈ 36.1 to 433 µM) | 12.5 to 150 (≈ 36.1 to 433 µM) |  | 12.5 to 150 (≈ 36.1 to 433 µM) |  |
| CCc1cc(C(=O)O)c(=O)[nH]c1-c1ccc(N2C[C@@H]3[C@@H](N)[C@@H]3C2)cc1F [Cpd 231, 6-{4-[(1R,5S,6s)-6-amino-3-azabicyclo[3.1.0]hex-3-yl]-2-fluorophenyl}-5-ethyl-2-oxo-1,2-dihydropyridine-3-carboxylic acid trifluoroacetate] |  |  | 1 to 3.5 |  | 1 to 3.5 | 12.5 to 150 |  |  | 12.5 to 150 | 12.5 to 150 |  | 12.5 to 150 | < 1 |
| CCc1c(-c2ccc(N3CCC(C4(N(C)C)CC4)C3)cc2)[nH]c(=O)c(C(=O)O)c1O (stereo not drawn) [Cpd 247, 6-(4-{3-[1-(dimethylamino)cyclopropyl]pyrrolidin-1-yl}phenyl)-5-ethyl-4-hydroxy-2-oxo-1,2-dihydropyridine-3-carboxylic acid] |  | < 1 | 3.5 to 12.5 (≈ 8.51 to 30.4 µM) |  | 3.5 to 12.5 (≈ 8.51 to 30.4 µM) | 3.5 to 12.5 (≈ 8.51 to 30.4 µM) |  |  | 12.5 to 150 (≈ 30.4 to 365 µM) | 12.5 to 150 (≈ 30.4 to 365 µM) |  | 12.5 to 150 (≈ 30.4 to 365 µM) |  |
| CCc1c(-c2ccc(N3C[C@@H]4[C@H](C3)[C@H]4N(C)C)cc2)[nH]c(=O)c(C(=O)O)c1O [Cpd 271, 6-{4-[(1R,5S,6s)-6-(dimethylamino)-3-azabicyclo[3.1.0]hex-3-yl]phenyl}-5-ethyl-4-hydroxy-2-oxo-1,2-dihydropyridine-3-carboxylic acid hydrochloride] | 3.5 to 12.5 | < 1 | 3.5 to 12.5 | 12.5 to 150 |  | 12.5 to 150 |  |  | 3.5 to 12.5 | 12.5 to 150 |  | 12.5 to 150 |  |
| CN(C)c1ccc(-c2ccc(C(=O)O)c(=O)[nH]2)cc1 [Cpd 310, 6-[4-(dimethylamino)phenyl]-2-oxo-1,2-dihydropyridine-3-carboxylic acid] | 12.5 to 150 (≈ 48.4 to 581 µM) | 12.5 to 150 (≈ 48.4 to 581 µM) | 12.5 to 150 (≈ 48.4 to 581 µM) | 12.5 to 150 (≈ 48.4 to 581 µM) |  | 12.5 to 150 (≈ 48.4 to 581 µM) | 12.5 to 150 (≈ 48.4 to 581 µM) |  | 12.5 to 150 (≈ 48.4 to 581 µM) | 12.5 to 150 (≈ 48.4 to 581 µM) |  | 12.5 to 150 (≈ 48.4 to 581 µM) |  |

Source: patent US9650395B2, “Antibacterial compounds and methods for use” (PTC Therapeutics, Inc., priority 2011, dated 2017)
